According to publication PMC6423518 (Bioorganic & medicinal chemistry letters, 2018):
Entries after “also recorded” stand apart in the source; their conditions may differ.

Tested on: MDA-MB-231 cells
Assay: Acridine orange/ethidium bromide
Type: cell-based, human
Details: fluorescence microscopy

Compound | Cell death / apoptosis by AO/EB staining
COc1cc(/C=C/C(=O)c2c3[nH]c4ccccc4c3cc[n+]2Cc2ccccc2)cc(OC)c1OC.[Br-] [Compound 13g] | induces apoptosis; also recorded: markedly induced cell death
COc1cccc2c1C(=O)c1c(O)c3c(c(O)c1C2=O)C[C@@](O)(C(=O)CO)C[C@@H]3O[C@H]1C[C@H](N)[C@H](O)[C@H](C)O1 [Doxorubicin, reference compound] | morphological changes characteristic of apoptotic cells formation
